# Data reported in paper PMC7673538 (PLoS Biology, 2020).
# Test system: EV-A71
# Assay: microbe, parasite or virus in culture
# Type: cell-based, enterovirus A71
# Settings: Enterovirus A, EVA71, HeLa R19, read-out: EC50 EV-A71
row,Compound,EC50 [nM]
1,"O=C(c1ccc[nH]1)N(Cc1ccc(C(F)(F)F)cc1)c1ccccc1 [Compound 22, N-Phenyl-N-(4-(trifluoromethyl)benzyl)-1H-pyrrole-2-carboxamide]",1270 ± 490

# Same assay, conditions: Enterovirus A, EVA71, HeLa R19, read-out: EC50 Exp1
row,Compound,EC50 [nM]
1,"O=C(c1ccc[nH]1)N(Cc1ccc(C(F)(F)F)cc1)c1ccccc1 [Compound 22, N-Phenyl-N-(4-(trifluoromethyl)benzyl)-1H-pyrrole-2-carboxamide]",780

# Same assay, conditions: Enterovirus A, EVA71, HeLa R19, read-out: EC50 Exp2
row,Compound,EC50 [nM]
1,"O=C(c1ccc[nH]1)N(Cc1ccc(C(F)(F)F)cc1)c1ccccc1 [Compound 22, N-Phenyl-N-(4-(trifluoromethyl)benzyl)-1H-pyrrole-2-carboxamide]",1760

# Test system: CV-B3
# Assay: microbe, parasite or virus in culture
# Type: cell-based, coxsackievirus B3
# Settings: not given
Compound,effect of the substitution on antiviral activity against CV-B3 (in words),antiviral activity against CV-B3 (in words),cross-resistance of 19d-resistant CV-B3 virus pools (in words)
"O=C(c1ccc[nH]1)N(Cc1ccc(C(F)(F)F)cc1)c1ccccc1 [Compound 22, N-Phenyl-N-(4-(trifluoromethyl)benzyl)-1H-pyrrole-2-carboxamide]","little, if any, effect on antiviral activity",,
(S)-fluoxetine [reference compound],,inhibited,cross-resistant

# Same assay, conditions: Enterovirus B, CVB3, HeLa R19, read-out: CV-B3 EC50 Average
row,Compound,EC50 [nM]
1,"O=C(c1ccc[nH]1)N(Cc1ccc(C(F)(F)F)cc1)c1ccccc1 [Compound 22, N-Phenyl-N-(4-(trifluoromethyl)benzyl)-1H-pyrrole-2-carboxamide]",1500

# Same assay, conditions: Enterovirus B, CVB3, HeLa R19, read-out: CV-B3 Exp 1 EC50
row,Compound,EC50 [nM]
1,"O=C(c1ccc[nH]1)N(Cc1ccc(C(F)(F)F)cc1)c1ccccc1 [Compound 22, N-Phenyl-N-(4-(trifluoromethyl)benzyl)-1H-pyrrole-2-carboxamide]",1420

# Same assay, conditions: Enterovirus B, CVB3, HeLa R19, read-out: CV-B3 Exp2 EC50
row,Compound,EC50 [nM]
1,"O=C(c1ccc[nH]1)N(Cc1ccc(C(F)(F)F)cc1)c1ccccc1 [Compound 22, N-Phenyl-N-(4-(trifluoromethyl)benzyl)-1H-pyrrole-2-carboxamide]",1580

# Same assay, conditions: Enterovirus B, CVB3, HeLa R19, read-out: EC50 HelaR19 Average
row,Compound,EC50 [nM]
1,"O=C(c1ccc[nH]1)N(Cc1ccc(C(F)(F)F)cc1)c1ccccc1 [Compound 22, N-Phenyl-N-(4-(trifluoromethyl)benzyl)-1H-pyrrole-2-carboxamide]",2600

# Same assay, conditions: Enterovirus B, CVB3, HeLa R19, read-out: Exp 1 EC50 HelaR19
row,Compound,EC50 [nM]
1,"O=C(c1ccc[nH]1)N(Cc1ccc(C(F)(F)F)cc1)c1ccccc1 [Compound 22, N-Phenyl-N-(4-(trifluoromethyl)benzyl)-1H-pyrrole-2-carboxamide]",2690

# Same assay, conditions: Enterovirus B, CVB3, HeLa R19, read-out: Exp 2 EC50 HelaR19
row,Compound,EC50 [nM]
1,"O=C(c1ccc[nH]1)N(Cc1ccc(C(F)(F)F)cc1)c1ccccc1 [Compound 22, N-Phenyl-N-(4-(trifluoromethyl)benzyl)-1H-pyrrole-2-carboxamide]",2510

# Test system: PV-1
# Assay: microbe, parasite or virus in culture
# Type: cell-based, poliovirus 1
# Settings: Enterovirus C, HeLa R19, read-out: EC50 PV-1
row,Compound,EC50 [nM]
1,"O=C(c1ccc[nH]1)N(Cc1ccc(C(F)(F)F)cc1)c1ccccc1 [Compound 22, N-Phenyl-N-(4-(trifluoromethyl)benzyl)-1H-pyrrole-2-carboxamide]",> 30000

# Test system: CV-A24
# Assay: microbe, parasite or virus in culture
# Type: cell-based, coxsackievirus A24
# Settings: Enterovirus C, CVA24, HeLa R19, read-out: EC50 CV-A24
row,Compound,EC50 [nM]
1,"O=C(c1ccc[nH]1)N(Cc1ccc(C(F)(F)F)cc1)c1ccccc1 [Compound 22, N-Phenyl-N-(4-(trifluoromethyl)benzyl)-1H-pyrrole-2-carboxamide]",> 30000

# Test system: EV-D68
# Assay: microbe, parasite or virus in culture
# Type: cell-based, enterovirus D68
# Settings: not given
Compound,cross-resistance of 19d-resistant EV-D68 virus pools (in words),inhibition of EV-D68 replication (in words)
(S)-fluoxetine [reference compound],cross-resistance,inhibited

# Same assay, conditions: Enterovirus D, EVD68, HeLa R19, read-out: EC50 EV-D68
row,Compound,EC50 [nM]
1,"O=C(c1ccc[nH]1)N(Cc1ccc(C(F)(F)F)cc1)c1ccccc1 [Compound 22, N-Phenyl-N-(4-(trifluoromethyl)benzyl)-1H-pyrrole-2-carboxamide]",12400 ± 810

# Same assay, conditions: Enterovirus D, EVD68, HeLa R19, read-out: EC50 Exp1
row,Compound,EC50 [nM]
1,"O=C(c1ccc[nH]1)N(Cc1ccc(C(F)(F)F)cc1)c1ccccc1 [Compound 22, N-Phenyl-N-(4-(trifluoromethyl)benzyl)-1H-pyrrole-2-carboxamide]",11600

# Same assay, conditions: Enterovirus D, EVD68, HeLa R19, read-out: EC50 Exp2
row,Compound,EC50 [nM]
1,"O=C(c1ccc[nH]1)N(Cc1ccc(C(F)(F)F)cc1)c1ccccc1 [Compound 22, N-Phenyl-N-(4-(trifluoromethyl)benzyl)-1H-pyrrole-2-carboxamide]",13200

# Test system: HRV-A2
# Assay: microbe, parasite or virus in culture
# Type: cell-based, human rhinovirus
# Settings: not given
row,Compound,inhibition of HRV-A2 replication (in words)
1,(S)-fluoxetine [reference compound],inhibited

# Same assay, conditions: Human rhinovirus sp., HRVA2, HeLa R19, read-out: EC50 HRV-A2
row,Compound,EC50 [nM]
1,"O=C(c1ccc[nH]1)N(Cc1ccc(C(F)(F)F)cc1)c1ccccc1 [Compound 22, N-Phenyl-N-(4-(trifluoromethyl)benzyl)-1H-pyrrole-2-carboxamide]",> 30000

# Test system: HRV-B14
# Assay: microbe, parasite or virus in culture
# Type: cell-based, human rhinovirus
# Settings: not given
row,Compound,inhibition of HRV-B14 replication (in words)
1,(S)-fluoxetine [reference compound],inhibited

# Same assay, conditions: Human rhinovirus sp., HRVB14, HeLa R19, read-out: EC50 HRV-B14
row,Compound,EC50 [nM]
1,"O=C(c1ccc[nH]1)N(Cc1ccc(C(F)(F)F)cc1)c1ccccc1 [Compound 22, N-Phenyl-N-(4-(trifluoromethyl)benzyl)-1H-pyrrole-2-carboxamide]",> 30000

# Test system: CV-B3
# Assay: microbe, parasite or virus in culture
# Type: cell-based, coxsackievirus B3
# Settings: Enterovirus B, CVB3, HAP1, read-out: EC50 Hap1 Average
row,Compound,EC50 [nM]
1,"O=C(c1ccc[nH]1)N(Cc1ccc(C(F)(F)F)cc1)c1ccccc1 [Compound 22, N-Phenyl-N-(4-(trifluoromethyl)benzyl)-1H-pyrrole-2-carboxamide]",2690

# Same assay, conditions: Enterovirus B, CVB3, HAP1, read-out: Exp 1 EC50 Hap1
row,Compound,EC50 [nM]
1,"O=C(c1ccc[nH]1)N(Cc1ccc(C(F)(F)F)cc1)c1ccccc1 [Compound 22, N-Phenyl-N-(4-(trifluoromethyl)benzyl)-1H-pyrrole-2-carboxamide]",2500

# Same assay, conditions: Enterovirus B, CVB3, HAP1, read-out: Exp 2 EC50 Hap1
row,Compound,EC50 [nM]
1,"O=C(c1ccc[nH]1)N(Cc1ccc(C(F)(F)F)cc1)c1ccccc1 [Compound 22, N-Phenyl-N-(4-(trifluoromethyl)benzyl)-1H-pyrrole-2-carboxamide]",2870

# Test system: CV-B3
# Assay: microbe, parasite or virus in culture
# Type: cell-based, coxsackievirus B3
# Settings: Enterovirus B, CVB3, BGM, read-out: EC50 BGM Average
row,Compound,EC50 [nM]
1,"O=C(c1ccc[nH]1)N(Cc1ccc(C(F)(F)F)cc1)c1ccccc1 [Compound 22, N-Phenyl-N-(4-(trifluoromethyl)benzyl)-1H-pyrrole-2-carboxamide]",2280

# Same assay, conditions: Enterovirus B, CVB3, BGM, read-out: Exp 1 EC50 BGM
row,Compound,EC50 [nM]
1,"O=C(c1ccc[nH]1)N(Cc1ccc(C(F)(F)F)cc1)c1ccccc1 [Compound 22, N-Phenyl-N-(4-(trifluoromethyl)benzyl)-1H-pyrrole-2-carboxamide]",2550

# Same assay, conditions: Enterovirus B, CVB3, BGM, read-out: Exp 2 EC50 BGM
row,Compound,EC50 [nM]
1,"O=C(c1ccc[nH]1)N(Cc1ccc(C(F)(F)F)cc1)c1ccccc1 [Compound 22, N-Phenyl-N-(4-(trifluoromethyl)benzyl)-1H-pyrrole-2-carboxamide]",2010

# Test system: representative EVs and RVs
# Assay: not given
# Type: cell-based
# Settings: not given
row,Compound,"inhibition of contemporary/clinical isolates of EV-A71, CV-A24v and EV-D68 (in words)"
1,(S)-fluoxetine [reference compound],"inhibited contemporary strains of EV-D68 and some, but not all, contemporary EV-A71 strains"

# Test system: HeLa R19 cells
# Assay: not given
# Settings: not given
row,Compound,cytotoxicity (in words)
1,"O=C(c1ccc[nH]1)N(Cc1ccc(C(F)(F)F)cc1)c1ccccc1 [Compound 22, N-Phenyl-N-(4-(trifluoromethyl)benzyl)-1H-pyrrole-2-carboxamide]",did not show any cytotoxicity

# Test system: not listed separately
# Assay: in vitro
# Settings: human, CC50 Average
row,Compound,CC50 [nM]
1,"O=C(c1ccc[nH]1)N(Cc1ccc(C(F)(F)F)cc1)c1ccccc1 [Compound 22, N-Phenyl-N-(4-(trifluoromethyl)benzyl)-1H-pyrrole-2-carboxamide]",> 30000

# Same assay, conditions: human, CC50 HelaR19 Average
row,Compound,CC50 [nM]
1,"O=C(c1ccc[nH]1)N(Cc1ccc(C(F)(F)F)cc1)c1ccccc1 [Compound 22, N-Phenyl-N-(4-(trifluoromethyl)benzyl)-1H-pyrrole-2-carboxamide]",> 100000

# Same assay, conditions: human, Exp 1 CC50
row,Compound,CC50 [nM]
1,"O=C(c1ccc[nH]1)N(Cc1ccc(C(F)(F)F)cc1)c1ccccc1 [Compound 22, N-Phenyl-N-(4-(trifluoromethyl)benzyl)-1H-pyrrole-2-carboxamide]",> 30000

# Same assay, conditions: human, Exp 1 CC50 HelaR19
row,Compound,CC50 [nM]
1,"O=C(c1ccc[nH]1)N(Cc1ccc(C(F)(F)F)cc1)c1ccccc1 [Compound 22, N-Phenyl-N-(4-(trifluoromethyl)benzyl)-1H-pyrrole-2-carboxamide]",> 100000

# Same assay, conditions: human, Exp2 CC50
row,Compound,CC50 [nM]
1,"O=C(c1ccc[nH]1)N(Cc1ccc(C(F)(F)F)cc1)c1ccccc1 [Compound 22, N-Phenyl-N-(4-(trifluoromethyl)benzyl)-1H-pyrrole-2-carboxamide]",> 30000

# Same assay, conditions: human, Exp 2 CC50 HelaR19
row,Compound,CC50 [nM]
1,"O=C(c1ccc[nH]1)N(Cc1ccc(C(F)(F)F)cc1)c1ccccc1 [Compound 22, N-Phenyl-N-(4-(trifluoromethyl)benzyl)-1H-pyrrole-2-carboxamide]",> 100000

# Test system: not listed separately
# Assay: in vitro
# Settings: human, CC50
row,Compound,CC50 [nM]
1,"O=C(c1ccc[nH]1)N(Cc1ccc(C(F)(F)F)cc1)c1ccccc1 [Compound 22, N-Phenyl-N-(4-(trifluoromethyl)benzyl)-1H-pyrrole-2-carboxamide]",> 100000

# Same assay, conditions: human, CC50 Hap1 Average
row,Compound,CC50 [nM]
1,"O=C(c1ccc[nH]1)N(Cc1ccc(C(F)(F)F)cc1)c1ccccc1 [Compound 22, N-Phenyl-N-(4-(trifluoromethyl)benzyl)-1H-pyrrole-2-carboxamide]",> 100000

# Same assay, conditions: human, Exp 1 CC50 Hap1
row,Compound,CC50 [nM]
1,"O=C(c1ccc[nH]1)N(Cc1ccc(C(F)(F)F)cc1)c1ccccc1 [Compound 22, N-Phenyl-N-(4-(trifluoromethyl)benzyl)-1H-pyrrole-2-carboxamide]",> 100000

# Same assay, conditions: human, Exp 2 CC50 Hap1
row,Compound,CC50 [nM]
1,"O=C(c1ccc[nH]1)N(Cc1ccc(C(F)(F)F)cc1)c1ccccc1 [Compound 22, N-Phenyl-N-(4-(trifluoromethyl)benzyl)-1H-pyrrole-2-carboxamide]",> 100000

# Test system: not listed separately
# Assay: in vitro
# Settings: monkey, CC50
row,Compound,CC50 [nM]
1,"O=C(c1ccc[nH]1)N(Cc1ccc(C(F)(F)F)cc1)c1ccccc1 [Compound 22, N-Phenyl-N-(4-(trifluoromethyl)benzyl)-1H-pyrrole-2-carboxamide]",> 100000

# Same assay, conditions: monkey, CC50 BGM Average
row,Compound,CC50 [nM]
1,"O=C(c1ccc[nH]1)N(Cc1ccc(C(F)(F)F)cc1)c1ccccc1 [Compound 22, N-Phenyl-N-(4-(trifluoromethyl)benzyl)-1H-pyrrole-2-carboxamide]",> 100000

# Same assay, conditions: monkey, Exp 1 CC50 BGM
row,Compound,CC50 [nM]
1,"O=C(c1ccc[nH]1)N(Cc1ccc(C(F)(F)F)cc1)c1ccccc1 [Compound 22, N-Phenyl-N-(4-(trifluoromethyl)benzyl)-1H-pyrrole-2-carboxamide]",> 100000

# Same assay, conditions: monkey, Exp 2 CC50 BGM
row,Compound,CC50 [nM]
1,"O=C(c1ccc[nH]1)N(Cc1ccc(C(F)(F)F)cc1)c1ccccc1 [Compound 22, N-Phenyl-N-(4-(trifluoromethyl)benzyl)-1H-pyrrole-2-carboxamide]",> 100000
